In general, IC50 refers to the point on the concentration scale where inhibition reaches its midpoint. A higher IC50 goes with weaker potency. Broadly, the Ki is a dissociation constant, usually derived from enzyme kinetics or from competition with a known ligand.

For one data set, the target named is T1, CYP2C11 (Rattus norvegicus, UniProt P08683).
T1 construct: consisting of pooled HLMs (0.5 mg/ml) or RLMs (1 mg/ml) and an NADPH-regenerating system; from tissue; host or cells: rat liver microsomes prepared in house
T1 sequence (P08683 1-500): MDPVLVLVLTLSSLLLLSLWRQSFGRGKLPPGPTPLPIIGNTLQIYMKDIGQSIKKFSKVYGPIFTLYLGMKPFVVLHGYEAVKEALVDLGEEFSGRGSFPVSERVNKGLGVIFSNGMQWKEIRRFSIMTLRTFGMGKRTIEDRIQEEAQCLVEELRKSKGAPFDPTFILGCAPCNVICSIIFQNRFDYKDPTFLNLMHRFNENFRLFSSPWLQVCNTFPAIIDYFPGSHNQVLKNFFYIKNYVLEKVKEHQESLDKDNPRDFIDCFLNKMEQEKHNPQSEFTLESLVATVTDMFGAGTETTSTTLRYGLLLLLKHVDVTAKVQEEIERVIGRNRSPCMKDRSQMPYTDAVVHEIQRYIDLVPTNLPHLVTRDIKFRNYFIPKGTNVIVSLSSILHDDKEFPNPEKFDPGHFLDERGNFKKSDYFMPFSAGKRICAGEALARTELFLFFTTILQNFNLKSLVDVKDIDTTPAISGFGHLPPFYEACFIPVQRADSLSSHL
Type of data set: in vitro ADME. The method, then: (§1) In this study, the rats were fasted overnight and killed by cervical dislocation before removal of the liver. The liver was excised, rinsed with ice-cold saline (0.9% NaCl w/v), weighed and homogenized in a […] Tris/KCl buffer (pH 7.4). Subsequently, the homogenate was centrifuged at 10,000 × g at 4 °C for 30 min. The supernatant was then centrifuged at 105,000 × g at 4 °C for 60 min. The pellet was reconstituted with […] Tris/KCl buffer (pH 7.4) and stored at −150 °C until use. The protein concentration of the liver microsomes was determined by a protein quantitative assay using bicinchoninic acid[22].
(§2) Microsomal incubation was carried out at 37 °C in a mixture of 200 μl in 0.05 M Tris/HCl buffer (pH 7.4) consisting of pooled HLMs (0.5 mg/ml) or RLMs (1 mg/ml) and an NADPH-regenerating system including MgCl2 (5 mM), G6P (10 mM), G6PDH (0.4 U/ml) and NADP (1 mM). Substrates were added into the incubation mixture and obtained the final concentrations (10 μM phenacetin for CYP1A2, 20 μM bupropion for CYP2B1/6, 20 μM tolbutamide for CYP2C9/11, 5 μM dextromethorphan for CYP2D1/6, 20 μM chlorzoxazone for CYP2E1 and 10 μM midazolam for CYP3A2/4), which were close to Km respectively. The proportion of organic solvent was not higher than 1% (v/v) in the incubation mixture. After pre-incubation for 5 min, the reaction was initiated by addition of NADP. Incubations were performed for 20 min, stopped by adding 200 μl ice-cold acetonitrile. And then 20 μl internal standard solution was added (3-acetamidophenol 2 μg/ml, chlorpropamide 2 μg/ml and mebendazole 2 μg/ml). The solution was mixed thoroughly for 3 min and centrifuged for 10 min at 16,000 × g at 4 °C. The supernatant (60 μl) was transferred to autosampler vials, and 2 μl was injected into LC-MS/MS system.
(§3) The IC50 (concentration of inhibitor to cause 50% inhibition of original enzyme activity) values were determined with the same incubation condition above. The specific concentrations of plumbagin were ranged from 0.1 μM to 50 μM. The IC50 values were calculated by plotting relative activities over the logarithm of plumbagin concentrations using GraphPad Prism 5.0 (GraphPad software Inc., CA, USA).
(§4) Cocktail probe substrates were then added and incubated for 20 min. Reactions were stopped with 200 μl ice-cold acetonitrile. The samples were treated according to the microsomal incubation method and then injected into LC-MS/MS for analysis.
(§5) Kinetic studies were performed for determining the types of inhibition on CYP by plumbagin. Pooled HLMs (0.5 mg/ml) or RLMs (1 mg/ml) with plumbagin (1 μM, 2 μM, 5 μM and 10 μM) were incubated in 0.05 M Tris/HCl buffer (pH 7.4) for 20 min at 37 °C. A series of concentrations for cocktail probe substrates were used: 2.5–20 μM phenacetin for CYP1A2; 5–40 μM bupropion for CYP2B1/6; 5–40 μM tolbutamide for CYP2C9/11; 1.25–10 μM dextromethorphan for CYP2D1/6; 5–40 μM chlorzoxazone for CYP2E1; 2.5–80 μM midazolam for CYP3A2; and 0.625–5 μM midazolam for CYP3A4. Enzyme kinetics as well as statistical analysis were performed using GraphPad Prism 5.0.
(§6) All data were presented as mean ± SD. The IC50 values were fitted by non-linear regression analysis using GraphPad Prism 5.0. The kinetic parameters were obtained by fitting velocity data to kinetic models (Michaelis-Menten) using GraphPad Prism 5.0. The Lineweaver-Burk Plot (the reciprocal of reaction velocities versus the reciprocal of substrates concentrations) was used to determine the quality of fit to a specific inhibition model. The inhibition constant (Ki) was obtained by a secondary plot using the slopes of the primary Lineweaver-Burk Plot (Km/Vmax versus inhibitor concentrations). αKi was obtained from a secondary plot using the y-intercepts of the Lineweaver-Burk plot (1/Vmax versus inhibitor concentrations). All results were analyzed in quadruplicate. One-way analysis of variance was used to estimate the significance of differences. […]

The target of another data set is T2, CYP2D1 (Rattus norvegicus, UniProt P10633).
T2 construct: consisting of pooled HLMs (0.5 mg/ml) or RLMs (1 mg/ml) and an NADPH-regenerating system; from tissue; host or cells: rat liver microsomes prepared in house
T2 sequence (P10633 1-504): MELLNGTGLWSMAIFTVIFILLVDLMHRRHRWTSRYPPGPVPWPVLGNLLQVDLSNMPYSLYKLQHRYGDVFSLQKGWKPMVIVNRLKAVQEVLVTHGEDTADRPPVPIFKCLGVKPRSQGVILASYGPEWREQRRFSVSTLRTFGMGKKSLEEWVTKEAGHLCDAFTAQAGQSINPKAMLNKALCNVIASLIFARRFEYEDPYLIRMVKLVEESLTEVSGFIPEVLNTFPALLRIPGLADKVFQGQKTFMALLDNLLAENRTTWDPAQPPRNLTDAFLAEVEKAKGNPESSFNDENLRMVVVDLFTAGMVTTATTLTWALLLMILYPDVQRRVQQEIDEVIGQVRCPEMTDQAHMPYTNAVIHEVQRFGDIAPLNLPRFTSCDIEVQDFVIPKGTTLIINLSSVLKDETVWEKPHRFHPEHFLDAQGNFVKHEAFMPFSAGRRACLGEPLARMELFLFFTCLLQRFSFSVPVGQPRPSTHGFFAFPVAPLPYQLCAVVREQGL
It counts as in vitro ADME. On the procedure:
as §1, §2, §3, §4, §5, §6

Regarding `CC1=CC(=O)c2c(O)cccc2C1=O` [plumbagin, 5-hydroxy-2-methyl-1,4-naphthoquinone], on CYP2C11, the IC50 turned out to be 3.85 µM, the Ki came out at 7.85 µM and the Type of inhibition entry is listed as “competitive”. Also, at CYP2D1, the IC50 was 6.17 µM, the inhibition constant Ki turned out to be 9.49 µM, the Type of inhibition entry was “mixed-type” and the α was 0.69. For the same compound, on CYP2D1, the αKi is 13.79 µM.

These data come from paper PMC4916434, “Evaluation of the inhibition potential of plumbagin against cytochrome P450 using LC-MS/MS and cocktail approach” (Scientific Reports, 2016).
